Experimental data published in ChEMBL document CHEMBL4339186, “Repurposing nitrocatechols: 5-Nitro-α-cyanocarboxamide derivatives of caffeic acid and caffeic acid phenethyl ester effectively inhibit aggregation of tau-derived hexapeptide AcPHF6” (Eur J Med Chem, 2019).
Activity calls are given as the source filed them. The rule behind the calls is not given here.

How the values were obtained:
[1] = Inhibition of synthetic AcPHF6 peptide aggregation in pH 7.4 phosphate buffer assessed as reduction in fluorescence intensity at 50 uM and measured every minute over 2 hrs with 5 secs shaking prior to each reading by ThT fluorescence assay
[2] = Metal chelating activity assessed as Fe2+-compound complex formation at 40 uM after 30 mins by UV-Visible spectrophotometric method
[3] = Metal chelating activity assessed as Cu2+-compound complex formation at 40 uM after 30 mins by UV-Visible spectrophotometric method
[4] = Metal chelating activity assessed as Cu2+-compound complex formation at 40 uM incubated with 0-100 uM copper(II) sulfate after 30 mins by UV-Visible spectrophotometric method

Compound	inhibition [1]	Activity [2]	Activity [3]	Activity [4]
O=C(O)/C=C/c1cc(O)c(O)c(Br)c1	18%	–	–	–
CCOC(=O)C(=Cc1cc(O)c(O)c([N+](=O)[O-])c1)C(=O)OCC	41%	–	–	–
O=C(O)/C=C/c1cc(O)c(O)c([N+](=O)[O-])c1	45%	–	–	–
N#C/C(=C\c1cc(O)c(O)c([N+](=O)[O-])c1)C(=O)OCc1ccccc1	71.2%	inactive	Active	–
N#C/C(=C\c1cc(O)c(O)c([N+](=O)[O-])c1)C(=O)OCCc1ccccc1	74.4%	inactive	Active	–
CCOC(=O)/C=C/c1ccc(O)c(O)c1	inactive	–	–	–
O=C(/C=C/c1ccc(O)c(O)c1)OCc1ccccc1	13%	–	–	–
O=C(O)/C=C/c1cc(O)c(O)c(O)c1	inactive	–	–	–
N#C/C(=C\c1cc(O)c(O)c([N+](=O)[O-])c1)C(=O)NCc1ccccc1	90.5%	inactive	Active	–
O=C(/C=C/c1ccc(O)c(O)c1)NCCc1ccccc1	inactive	–	–	–
CCOC(=O)/C=C/c1cc(O)c(O)c([N+](=O)[O-])c1	44%	–	–	–
CCN(CC)C(=O)/C(C#N)=C/c1cc(O)c(O)c([N+](=O)[O-])c1	60.3%	–	–	–
N#C/C(=C\c1cc(O)c(O)c([N+](=O)[O-])c1)C(=O)NCCc1ccccc1	89.2%	inactive	Active	Active
CCOC(=O)C(=Cc1ccc(O)c(O)c1)C(=O)OCC	inactive	–	–	–
O=C(/C=C/c1ccc(O)c(O)c1)OCCc1ccccc1	17%	–	–	–
O=C(/C=C/c1cc(O)c(O)c([N+](=O)[O-])c1)OCCc1ccccc1	55.2%	inactive	Active	–
CCOC(=O)/C=C/c1cc(O)c(O)c(O)c1	21%	–	–	–
O=C(O)c1ccc(O)c(O)c1	inactive	–	–	–
O=C(O)/C=C/c1ccc(O)cc1	inactive	–	–	–
O=C(O)/C=C/c1ccc(O)c(O)c1	inactive	–	–	–
Cc1ccc(C(=O)c2cc(O)c(O)c([N+](=O)[O-])c2)cc1	64.6%	–	–	–
O=S(=O)(O)c1cc(S(=O)(=O)O)c2c(/N=N/c3ccccc3)c(O)ccc2c1	54%	–	–	–
CCOC(=O)/C=C/c1ccc(O)cc1	inactive	–	–	–
CCOC(=O)C(=Cc1ccc(O)cc1)C(=O)OCC	inactive	–	–	–
O=C(/C=C/c1cc(O)c(O)c([N+](=O)[O-])c1)OCc1ccccc1	44.5%	inactive	Active	–
O=C(O)C(=Cc1cc(O)c(O)c([N+](=O)[O-])c1)C(=O)O	inactive	–	–	–
CCOC(=O)C(=Cc1cc(O)c(O)c(O)c1)C(=O)OCC	inactive	–	–	–
O=C(O)c1cc(O)c(O)c(O)c1	inactive	–	–	–
